In US10758534B2 (Vertex Pharmaceuticals Incorporated, priority 2014, dated 2020):

Target: T1, F508del (Homo sapiens, UniProt P13569, DEL508-508)
T1 construct: expressed in transfected cells
Assay: Protocol 1: membrane potential optical assay (FLIPR III, voltage sensing dye), identification of potentiator compounds
Type: cell-based
Conditions: Table 3, compounds of Table 1
How it was run: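 Gating potentiation is read as a membrane-potential fluorescence change (FLIPR III, voltage-sensing dye) after one forskolin addition under a Cl− gradient, with gluconate replacing chloride, pH 7.4. Cells are F508del-expressing NIH3T3 mouse fibroblasts held 24 h at 27 °C and exposed to compound before dye loading.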

T1 sequence (P13569 with tags, fused parts or gaps DEL508-508): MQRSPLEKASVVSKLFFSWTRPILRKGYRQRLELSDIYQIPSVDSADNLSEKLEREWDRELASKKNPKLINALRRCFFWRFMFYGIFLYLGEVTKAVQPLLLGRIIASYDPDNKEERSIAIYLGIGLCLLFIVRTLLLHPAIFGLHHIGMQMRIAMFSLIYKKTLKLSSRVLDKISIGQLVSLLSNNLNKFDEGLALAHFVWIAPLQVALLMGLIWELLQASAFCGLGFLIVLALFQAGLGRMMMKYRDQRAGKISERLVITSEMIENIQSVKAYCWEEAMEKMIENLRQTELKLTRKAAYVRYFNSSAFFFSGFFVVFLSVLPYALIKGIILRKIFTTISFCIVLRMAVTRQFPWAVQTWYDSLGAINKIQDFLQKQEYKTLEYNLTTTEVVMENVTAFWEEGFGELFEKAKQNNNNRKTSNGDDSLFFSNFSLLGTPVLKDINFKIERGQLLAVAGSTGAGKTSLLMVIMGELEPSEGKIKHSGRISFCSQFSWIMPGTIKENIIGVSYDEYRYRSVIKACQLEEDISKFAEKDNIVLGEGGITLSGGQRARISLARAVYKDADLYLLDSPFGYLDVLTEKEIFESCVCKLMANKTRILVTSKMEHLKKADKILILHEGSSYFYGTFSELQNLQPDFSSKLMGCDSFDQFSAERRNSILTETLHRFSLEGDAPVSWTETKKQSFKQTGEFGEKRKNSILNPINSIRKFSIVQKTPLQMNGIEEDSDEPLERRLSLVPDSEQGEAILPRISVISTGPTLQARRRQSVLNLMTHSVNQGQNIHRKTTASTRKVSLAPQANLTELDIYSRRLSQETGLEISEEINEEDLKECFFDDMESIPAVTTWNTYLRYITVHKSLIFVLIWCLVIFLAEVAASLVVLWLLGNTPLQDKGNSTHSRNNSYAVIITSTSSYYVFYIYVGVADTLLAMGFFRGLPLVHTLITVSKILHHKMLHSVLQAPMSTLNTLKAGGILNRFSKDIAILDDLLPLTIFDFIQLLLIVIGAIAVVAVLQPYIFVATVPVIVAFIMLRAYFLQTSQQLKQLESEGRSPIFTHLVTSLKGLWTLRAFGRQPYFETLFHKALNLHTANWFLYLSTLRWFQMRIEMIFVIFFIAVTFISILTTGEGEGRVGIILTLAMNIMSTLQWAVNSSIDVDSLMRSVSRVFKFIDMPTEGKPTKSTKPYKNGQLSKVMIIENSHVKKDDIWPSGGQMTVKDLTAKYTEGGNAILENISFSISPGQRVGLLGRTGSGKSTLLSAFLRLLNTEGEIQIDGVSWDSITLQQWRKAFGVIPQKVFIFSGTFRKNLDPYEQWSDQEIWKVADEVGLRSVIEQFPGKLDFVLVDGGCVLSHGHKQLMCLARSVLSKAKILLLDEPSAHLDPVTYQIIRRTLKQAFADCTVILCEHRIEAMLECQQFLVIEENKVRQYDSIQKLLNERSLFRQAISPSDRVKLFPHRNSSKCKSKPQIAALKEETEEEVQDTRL

EC30 | Compound
+++ (“+++” means <3 uM) | CCOc1cccc2c1CN(Cc1c(C)cc(C)cc1C)C2(C)C(=O)NS(=O)(=O)c1ccc(N)nc1 (stereo not drawn) [Compound 1413, N-[(6-amino-3-pyridyl)sulfonyl]-4-ethoxy-1-methyl-2-[(2,4,6-trimethylphenyl)methyl]isoindoline-1-carboxamide]
+++ (“+++” means <3 uM) | CC1CN(c2nc(-c3ccccc3)ccc2C(=O)NS(=O)(=O)c2cccc(N)n2)C(C)(C)C1 (stereo not drawn) [Compound 1334, N-[(6-amino-2-pyridyl)sulfonyl]-6-phenyl-2-(2,2,4-trimethylpyrrolidin-1-yl)pyridine-3-carboxamide]
+++ (“+++” means <3 uM) | COc1ncc(-c2ccc(C(=O)NS(=O)(=O)c3nccnc3N)c(Oc3c(C)cc(C)cc3C)n2)cc1C [Compound 1249, N-(3-aminopyrazin-2-yl)sulfonyl-6-(6-methoxy-5-methyl-3-pyridyl)-2-(2,4,6-trimethylphenoxy)pyridine-3-carboxamide]
+++ (“+++” means <3 uM) | CC1(C)CCCc2cc(C(=O)NS(=O)(=O)c3ccc(N)cc3)c(-c3ccccc3)nc21 [Compound 1190, N-(4-aminophenyl)sulfonyl-8,8-dimethyl-2-phenyl-6,7-dihydro-5H-quinoline-3-carboxamide]
+++ (“+++” means <3 uM) | C[C@@H]1CN(c2nc(C(C)(C)C)c(C(O)C(O)C3CCCCC3)cc2C(=O)NS(=O)(=O)c2cccc(N)n2)C(C)(C)C1 (stereo partly drawn) [Compound 1846]
+++ (“+++” means <3 uM) | CC1CCCN(c2nc(C(C)(C)C)ccc2C(=O)NS(=O)(=O)c2cccc(N)n2)C1 (stereo not drawn) [Compound 1008, N-[(6-amino-2-pyridyl)sulfonyl]-6-tert-butyl-2-(3-methyl-1-piperidyl)pyridine-3-carboxamide]
+++ (“+++” means <3 uM) | CC1CN(c2ncccc2C(=O)NS(=O)(=O)c2cccc(OCc3ccc(F)cc3Cl)n2)C(C)(C)C1 (stereo not drawn) [Compound 1899, N—[[6-[(2-chloro-4-fluoro-phenyl)methoxy]-2-pyridyl]sulfonyl]-2-(2,2,4-trimethylpyrrolidin-1-yl)pyridine-3-carboxamide]
+++ (“+++” means <3 uM) | CC1CN(c2nc(-c3ccc(OCC(C)(C)C)nc3)ccc2C(=O)NS(=O)(=O)c2cccc(N)n2)C(C)(C)C1 (stereo not drawn) [Compound 1181, N-[(6-amino-2-pyridyl)sulfonyl]-6-[6-(2,2-dimethylpropoxy)-3-pyridyl]-2-(2,2,4-trimethylpyrrolidin-1-yl)pyridine-3-carboxamide]
+ (“+” means greater than 10 uM) | Cc1ccc(-c2nc(C(C)(C)C)ccc2C(=O)NS(=O)(=O)c2cccc(N)c2)c(F)c1 [Compound 1331, N-(3-aminophenyl)sulfonyl-6-tert-butyl-2-(2-fluoro-4-methyl-phenyl)pyridine-3-carboxamide]
+++ (“+++” means <3 uM) | Cc1cccc(-c2ccc(C(=O)NS(=O)(=O)c3cccnc3N)c(N3C[C@@H](C)CC3(C)C)n2)c1C [Compound 1713, N-[(2-amino-3-pyridyl)sulfonyl]-6-(2,3-dimethylphenyl)-2-[(4S)-2,2,4-trimethylpyrrolidin-1-yl]pyridine-3-carboxamide]
+++ (“+++” means <3 uM) | CC(Oc1nc(N2C[C@@H](C)CC2(C)C)c(C(=O)NS(=O)(=O)c2cccc(N)n2)cc1F)C1CCCCC1 (stereo partly drawn) [Compound 1730, N-[(6-amino-2-pyridyl)sulfonyl]-6-(1-cyclohexylethoxy)-5-fluoro-2-[(4S)-2,2,4-trimethylpyrrolidin-1-yl]pyridine-3-carboxamide]
+++ (“+++” means <3 uM) | CCOc1cccc2c1CN(Cc1c(C)cccc1C)C2(C)C(=O)NS(=O)(=O)c1cccc(F)n1 (stereo not drawn) [Compound 1676, 2-[(2,6-dimethylphenyl)methyl]-4-ethoxy-N-[(6-fluoro-2-pyridyl)sulfonyl]-1-methyl-isoindoline-1-carboxamide]
+++ (“+++” means <3 uM) | CC(C)C(C)c1ccc(C(=O)NS(=O)(=O)c2cccc(N)n2)c(N2C[C@@H](C)CC2(C)C)n1 (stereo partly drawn) [Compound 1489, N-[(6-amino-2-pyridyl)sulfonyl]-6-(1,2-dimethylpropyl)-2-[(4S)-2,2,4-trimethylpyrrolidin-1-yl]pyridine-3-carboxamide]
+++ (“+++” means <3 uM) | COc1cc(F)cc(-c2ccc(C(=O)NS(=O)(=O)c3cccnc3N)c(N3C[C@@H](C)CC3(C)C)n2)c1 [Compound 1869, N-[(2-amino-3-pyridyl)sulfonyl]-6-(3-fluoro-5-methoxy-phenyl)-2-[(4S)-2,2,4-trimethylpyrrolidin-1-yl]pyridine-3-carboxamide]
+++ (“+++” means <3 uM) | COc1cc(OC)cc(-c2ccc(C(=O)NS(=O)(=O)c3cccc(N)n3)c(N3C[C@@H](C)CC3(C)C)n2)c1 [Compound 1471, N-[(6-amino-2-pyridyl)sulfonyl]-6-(3,5-dimethoxyphenyl)-2-[(4S)-2,2,4-trimethylpyrrolidin-1-yl]pyridine-3-carboxamide]
+++ (“+++” means <3 uM) | CCOc1cc(C)cc(-c2ccc(C(=O)NS(=O)(=O)c3cccc(N)n3)c(N3C[C@@H](C)CC3(C)C)n2)c1 [Compound 1488, N-[(6-amino-2-pyridyl)sulfonyl]-6-(3-ethoxy-5-methyl-phenyl)-2-[(4S)-2,2,4-trimethylpyrrolidin-1-yl]pyridine-3-carboxamide]
+++ (“+++” means <3 uM) | CC1CN(c2ncccc2C(=O)NS(=O)(=O)c2cccc(Nc3cccc4cccnc34)n2)C(C)(C)C1 (stereo not drawn) [Compound 1826, N—[[6-(8-quinolylamino)-2-pyridyl]sulfonyl]-2-(2,2,4-trimethylpyrrolidin-1-yl)pyridine-3-carboxamide]
+++ (“+++” means <3 uM) | CC(C)COc1cc(F)cc(-c2ccc(C(=O)NS(=O)(=O)c3cccc(N)n3)c(C3CC(C)(C)CC3(C)C)n2)c1 (stereo not drawn) [Compound 1552]
+++ (“+++” means <3 uM) | CCOc1cccc2c1CN(Cc1c(C)cc(C)cc1C)C2(C)C(=O)NS(=O)(=O)c1ccccn1 (stereo not drawn) [Compound 1474, 4-ethoxy-1-methyl-N-(2-pyridylsulfonyl)-2-[(2,4,6-trimethylphenyl)methyl]isoindoline-1-carboxamide]
+++ (“+++” means <3 uM) | COc1ccc(/C=C/c2cnc(N3CC(C)CC3(C)C)c(C(=O)NS(=O)(=O)c3cccc(N)n3)c2)cc1 (stereo not drawn) [Compound 1726, N-[(6-amino-2-pyridyl)sulfonyl]-5-[(E)-2-(4-methoxyphenyl)vinyl]-2-(2,2,4-trimethylpyrrolidin-1-yl)pyridine-3-carboxamide]
+++ (“+++” means <3 uM) | Cc1ccc(Oc2nc3c(cc2C(=O)NS(=O)(=O)c2nccnc2N)CCCC3(C)C)c(C)c1 [Compound 1239, N-(3-aminopyrazin-2-yl)sulfonyl-2-(2,4-dimethylphenoxy)-8,8-dimethyl-6,7-dihydro-5H-quinoline-3-carboxamide]
+++ (“+++” means <3 uM) | CC1CN(c2ncccc2C(=O)NS(=O)(=O)c2cccc(NCc3ccccc3Cl)n2)C(C)(C)C1 (stereo not drawn) [Compound 1983, N—[[6-[(2-chlorophenyl)methylamino]-2-pyridyl]sulfonyl]-2-(2,2,4-trimethylpyrrolidin-1-yl)pyridine-3-carboxamide]
+++ (“+++” means <3 uM) | Cc1cc(F)ccc1Oc1nc(C(C)(C)C)ccc1C(=O)NS(=O)(=O)c1cccc(N)n1 [Compound 1104, N-[(6-amino-2-pyridyl)sulfonyl]-6-tert-butyl-2-(4-fluoro-2-methyl-phenoxy)pyridine-3-carboxamide]
+++ (“+++” means <3 uM) | CC(C)Oc1ccc(-c2ccc(C(=O)NS(=O)(=O)c3cccc(N)n3)c(N3CCCC(C)(C)C3)n2)cn1 [Compound 1283, N-[(6-amino-2-pyridyl)sulfonyl]-2-(3,3-dimethyl-1-piperidyl)-6-(6-isopropoxy-3-pyridyl)pyridine-3-carboxamide]
+++ (“+++” means <3 uM) | CC(C)Cc1ccn(-c2ccc(C(=O)NS(=O)(=O)c3cccc(N)n3)c(N3C[C@@H](C)CC3(C)C)n2)n1 [Compound 1411, N-[(6-amino-2-pyridyl)sulfonyl]-6-(3-isobutylpyrazol-1-yl)-2-[(4S)-2,2,4-trimethylpyrrolidin-1-yl]pyridine-3-carboxamide]
+++ (“+++” means <3 uM) | CC1CN(c2nc(C(C)(C)C)c(C3=CCOCC3)cc2C(=O)NS(=O)(=O)c2cccc(N)n2)C(C)(C)C1 (stereo not drawn) [Compound 1495, N-[(6-amino-2-pyridyl)sulfonyl]-6-tert-butyl-5-(3,6-dihydro-2H-pyran-4-yl)-2-(2,2,4-trimethylpyrrolidin-1-yl)pyridine-3-carboxamide]

Compound | EC30
CC(C)COc1cc(F)cc(-c2ccc(C(=O)NS(=O)(=O)c3cccc(N)n3)c(OC3CCCC3)n2)c1 [Compound 1451, N-[(6-amino-2-pyridyl)sulfonyl]-2-(cyclopentoxy)-6-(3-fluoro-5-isobutoxy-phenyl)pyridine-3-carboxamide] | +++ (“+++” means <3 uM)
CC(C)COc1cc(F)cc(-c2ccc(C(=O)NS(=O)(=O)c3ccc(O)cc3)c(N3C[C@@H](C)CC3(C)C)n2)c1 [Compound 1750, 6-(3-fluoro-5-isobutoxy-phenyl)-N-(4-hydroxyphenyl)sulfonyl-2-[(4S)-2,2,4-trimethylpyrrolidin-1-yl]pyridine-3-carboxamide] | +++ (“+++” means <3 uM)
CC(C)COc1cc(F)cc(-c2ccc(C(=O)NS(=O)(=O)c3cccc(N)n3)c(N3CCC(C)CC3)n2)c1 [Compound 991, N-[(6-amino-2-pyridyl)sulfonyl]-6-(3-fluoro-5-isobutoxy-phenyl)-2-(4-methyl-1-piperidyl)pyridine-3-carboxamide] | +++ (“+++” means <3 uM)
COc1ccc(S(=O)(=O)NC(=O)c2ccc(-c3cc(F)cc(OCC(C)C)c3)nc2N2C[C@@H](C)CC2(C)C)cc1 [Compound 1876, 6-(3-fluoro-5-isobutoxy-phenyl)-N-(4-methoxyphenyl)sulfonyl-2-[(4S)-2,2,4-trimethylpyrrolidin-1-yl]pyridine-3-carboxamide] | +++ (“+++” means <3 uM)
